Experimental data as given in ChEMBL document CHEMBL5335777 (Eur J Med Chem, 2023).
Blank lines part the entries; values can stand above or below the compound they belong to. The source made the active and inactive calls. The calls are words filed in the database; no cut-off is given here.

How the values were obtained:
NCI-H1792 [1] = experiment: Antiproliferative activity against human NCI-H1792 cells harboring heterozygous KRAS G12C mutant assessed as inhibition of cell growth incubated for 72 hrs by MTT assay; type: functional, cell-based; conditions: NCI-H1792, 72 h
SW1573 = experiment: Antiproliferative activity against human SW1573 cells harboring homozygous KRAS G12C mutant assessed as inhibition of cell growth incubated for 72 hrs by MTT assay; type: functional, cell-based; conditions: SW1573, 72 h
MIA PaCa-2 = experiment: Antiproliferative activity against human MIA PaCa-2 cells harboring homozygous KRAS G12C mutant assessed as inhibition of cell growth incubated for 72 hrs by MTT assay; type: functional, cell-based; conditions: MIA PaCa-2, 72 h
NCI-H358 = experiment: Antiproliferative activity against human NCI-H358 cells harboring heterozygous KRAS G12C mutant assessed as inhibition of cell growth incubated for 72 hrs by MTT assay; type: functional, cell-based; conditions: NCI-H358, 72 h
A549 = experiment: Antiproliferative activity against human A549 cells harboring homozygous KRAS G12S mutant assessed as inhibition of cell growth incubated for 72 hrs by MTT assay; type: functional, cell-based; conditions: A549, 72 h
SW480 = experiment: Antiproliferative activity against human SW480 cells harboring homozygous KRAS G12V mutant assessed as inhibition of cell growth incubated for 72 hrs by MTT assay; type: functional, cell-based; conditions: SW480, 72 h
PANC-1 = experiment: Antiproliferative activity against human PANC-1 cells harboring heterozygous KRAS G12D mutant assessed as inhibition of cell growth incubated for 72 hrs by MTT assay; type: functional, cell-based; conditions: PANC-1, 72 h
LCLC-103H cell line [2] = experiment: Antiproliferative activity against human LCLC-103H cells harboring wild type KRAS assessed as inhibition of cell growth incubated for 72 hrs by MTT assay; type: functional, cell-based
BXPC-3 = experiment: Antiproliferative activity against human BXPC-3 cells harboring wild type KRAS assessed as inhibition of cell growth incubated for 72 hrs by MTT assay; type: functional, cell-based; conditions: BXPC-3, 72 h
[3] = Cytotoxicity against human MRC5 cells assessed as inhibition of cell growth incubated for 72 hrs by MTT assay; type: toxicity, cell-based
[4] = Selectivity ratio of IC50 for human LCLC-103H cells harboring wild type KRAS to IC50 for human NCI-H1792 cells harboring […] KRAS G12C mutant; type: functional
Homo sapiens [5] = species on record: Homo sapiens; experiment: Selectivity ratio of IC50 for human MRC5 cells to IC50 for human NCI-H1792 cells harboring homozygous KRAS G12C mutant
[6] = Selectivity ratio of IC50 for human LCLC-103H cells harboring wild type KRAS to IC50 for human SW1573 cells harboring homozygous KRAS G12C mutant; type: functional
[7] = Selectivity ratio of IC50 for human MRC5 cells to IC50 for human SW1573 cells harboring homozygous KRAS G12C mutant; type: toxicity; conditions: MRC5 cells versus SW1573 cells (homozygous KRAS G12C mutant), read-out: Ratio IC50
[8] = Selectivity ratio of IC50 for human BXPC-3 cells harboring wild type KRAS to IC50 for human MIA PaCa-2 cells harboring homozygous KRAS G12C mutant; type: functional
Homo sapiens [9] = species on record: Homo sapiens; experiment: Selectivity ratio of IC50 for human MRC5 cells to IC50 for human MIA PaCa-2 cells harboring homozygous KRAS G12C mutant
[10] = Selectivity ratio of IC50 for human LCLC-103H cells harboring wild type KRAS to IC50 for human NCI-H358 cells harboring heterozygous KRAS G12C mutant; type: functional
Homo sapiens [11] = species on record: Homo sapiens; experiment: Selectivity ratio of IC50 for human MRC5 cells to IC50 for human NCI-H358 cells harboring heterozygous KRAS G12C mutant
[12] = Selectivity ratio of IC50 for human LCLC-103H cells harboring wild type KRAS to IC50 for human A549 cells harboring homozygous KRAS G12S mutant; type: functional
[13] = Selectivity ratio of IC50 for human BXPC-3 cells harboring wild type KRAS to IC50 for human PANC-1 cells harboring heterozygous KRAS G12D mutant; type: functional
Homo sapiens [14] = species on record: Homo sapiens; experiment: Inhibition of GDP-bound human KRAS 149stop G12C mutant expressed in Escherichia coli BL21 Rosetta cells assessed as inhibition of EDTA mediated nucleotide exchange at 250 uM measured after 24 hrs by fluorescence based analysis
Homo sapiens [15] = species on record: Homo sapiens; experiment: Inhibition of GDP-bound human KRAS 149stop G12C mutant expressed in Escherichia coli BL21 Rosetta cells assessed as inhibition of SOS1 mediated nucleotide exchange at 250 uM measured after 24 hrs by fluorescence based analysis
NCI-H1792 [16] = experiment: Antiproliferative activity against human NCI-H1792 cells harboring KRAS G12C mutant assessed as cell viability at 25 uM incubated for 72 hrs by MTT assay relative to control; type: functional; conditions: read-out: Activity
NCI-H1792 [17] = experiment: Antiproliferative activity against human NCI-H1792 cells harboring KRAS G12C mutant assessed as reduction in cell viability at 2.5 uM incubated for 72 hrs by MTT assay; type: functional, cell-based
[18] = Antiproliferative activity against human HCA-7 cells harboring wild type KRAS assessed as inhibition of cell growth incubated for 72 hrs by MTT assay; type: functional, cell-based, HCA7; conditions: HCA-7, 72 h
[19] = Cytotoxicity against HUVEC cells immortalized with TERT assessed as inhibition of cell growth incubated for 72 hrs by MTT assay; type: toxicity, cell-based; conditions: human
[20] = Cytotoxicity against human CCD-986Sk cells assessed as inhibition of cell growth incubated for 72 hrs by MTT assay; type: toxicity, cell-based
[21] = Cmax in NOD-SCID mouse at 15 mg/kg, ip administered as single dose and measured upto 48 hrs by HPLC/MS analysis; type: ADME, organism-based; design: time < 48 hrs, dose 15 mg/kg, route ip; conditions: in vivo
[22] = Tmax in NOD-SCID mouse at 15 mg/kg, ip administered as single dose and measured upto 48 hrs by HPLC/MS analysis; type: ADME, organism-based; conditions: in vivo
[23] = Half life in NOD-SCID mouse at 15 mg/kg, ip administered as single dose and measured upto 48 hrs by HPLC/MS analysis; type: ADME, organism-based; conditions: in vivo
[24] = AUCt in NOD-SCID mouse at 15 mg/kg, ip administered as single dose and measured upto 48 hrs by HPLC/MS analysis; type: ADME, organism-based; design: dose 15 mg/kg, time < 48 hrs, route ip; conditions: in vivo
[25] = Volume of distribution in NOD-SCID mouse at 15 mg/kg, ip administered as single dose and measured upto 48 hrs by HPLC/MS analysis; type: ADME, organism-based; conditions: in vivo
[26] = Clearance in NOD-SCID mouse at 15 mg/kg, ip administered as single dose and measured upto 48 hrs by HPLC/MS analysis; type: ADME, organism-based; conditions: in vivo
[27] = (§1) Toxicity in immunodeficient NOD-SCID mouse xenografted with human NCI-H1792 cells harboring KRAS G12C mutant assessed as body weight at 5 to 30 mg/kg, ip administered for 5 times at 5 mg/kg in first week followed by administration at 20 mg/kg 5 times in second week and further administered 30 mg/kg 3 times in third week measured 17 days post treatment initiation and 35 days post tumor transplantation (reference value: 6.6 g); type: organism-based; conditions: in vivo, 408 h, dose 5-30 mg/kg, time 17 day
[28] = as §1, with “LCLC-103H” for “NCI-H1792”, “harboring wild type” for “harboring”, “KRAS” for “KRAS G12C mutant”, “2.6” for “6.6”; type: organism-based; conditions: in vivo, 408 h, dose 5-30 mg/kg, time 17 day
LCLC-103H cell line [29] = experiment: Antitumor activity against human LCLC-103H cells harboring wild type KRAS xenografted in immunodeficient NOD-SCID mouse assessed as tumor volume at 5 to 30 mg/kg, ip administered for 5 times at 5 mg/kg in first week followed by administration at 20 mg/kg 5 times in second week and further administered 30 mg/kg 3 times in third week measured 17 days post treatment initiation and 35 days post tumor transplantation by digital caliper based analysis; type: functional; conditions: dose 5-30 mg/kg, time 17 day
NCI-H1792 [30] = experiment: Antitumor activity against human NCI-H1792 cells harboring KRAS G12C mutant xenografted in immunodeficient NOD-SCID mouse assessed as reduction in tumor growth at 5 to 30 mg/kg, ip administered for 5 times at 5 mg/kg in first week followed by administration at 20 mg/kg 5 times in second week and further administered 30 mg/kg 3 times in third week measured 17 days post treatment initiation and 35 days post tumor transplantation by digital caliper based analysis relative to control; type: functional; design: scale not given: the % may be the effect or the level left; conditions: dose 5-30 mg/kg, time 17 day

IC50 (NCI-H1792 [1]): 27.9 µM | IC50 (SW1573): 25.9 µM | IC50 (MIA PaCa-2): 5.8 µM | IC50 (NCI-H358): 6.9 µM | IC50 (A549): 35.2 µM | IC50 (SW480): 27.8 µM | IC50 (PANC-1): 58.2 µM | IC50 (BXPC-3): 36.8 µM | Ratio IC50 (Homo sapiens [5]): 2.7 | Ratio IC50 (Homo sapiens [9]): 13 | Ratio IC50 (Homo sapiens [11]): 11
SMILES: C=CC(=O)N1CC(N2CCN(C(=O)CNc3cc(C4(C)CC4)c(Cl)cc3O)CC2)C1
IC50 (LCLC-103H cell line [2]): 41.5 µM | IC50 at 72 h [3]: 75.3 µM | Ratio IC50 [4]: 1.5 | Ratio IC50 [6]: 1.6 | selectivity ratio [7]: 2.9 | Ratio IC50 [8]: 6.4 | Ratio IC50 [10]: 6 | Ratio IC50 [12]: 1.2 | Ratio IC50 [13]: 0.6 | inhibition (Homo sapiens [14]): Active | inhibition (Homo sapiens [15]): Active | viability at 25 µM (NCI-H1792 [16]): < 50% | Activity (NCI-H1792 [17]): Active

IC50 (NCI-H1792 [1]): 10.9 µM | IC50 (MIA PaCa-2): 0.5 µM | IC50 (NCI-H358): 0.3 µM | Cmax [21]: 5850 ng/mL | Tmax [22]: 15 min | half-life [23]: 174 min | AUC(0-t) at 48 h [24]: 3740 ng·h/mL | Vd [25]: 363 mL | CL/F [26]: 1.37 mL/min
SMILES: C=CC(=O)N1CCN(c2ncnc3c(F)c(-c4c(O)cccc4F)c(Cl)cc23)CC1
IC50 [18]: 23.4 µM | IC50 at 72 h [19]: 700 nM | IC50 at 72 h [20]: 52.2 µM | inhibition (Homo sapiens [14]): Active | inhibition (Homo sapiens [15]): Active | Activity [27]: 3.7 g | Activity [28]: 0.8 g | Activity (LCLC-103H cell line [29]): 7.9 mm3 | Activity (NCI-H1792 [30]): 17.9% | viability at 25 µM (NCI-H1792 [16]): < 50% | Activity (NCI-H1792 [17]): Active
